Laboratory results: patent publication US9322066B2, “Predictors for cancer treatment” (priority 2011, dated 2016)

Test system: relapsed or refractory, rituximab-naive or -sensitive follicular B-cell NHL
Experiment: Time to next anti-lymphoma therapy, Vc-R vs rituximab study, by biomarker
Assay type: in vivo, human
Parameters: Median, Time to Next Anti-Lymphoma Therapy / Time to Next Anti-Lymphoma Therapy, Median: unit not given here
Source text: Non-Hodgkin lymphoma (NHL) encompasses several unique malignant lymphoid disease entities that vary in clinical behavior, morphologic appearance, immunologic, and molecular phenotype. […] A randomized, open-label, active-controlled, multicenter, multinational, prospective study to compare the efficacy and safety of the combination of bortezomib and rituximab (Vc-R) to single-agent rituximab in subjects who have relapsed or refractory, rituximab-naive or -sensitive follicular B-cell NHL was performed.
Subjects were centrally randomized to Treatment Groups A (Vc-R) or B (rituximab) in a 1:1 ratio taking into account the following stratification factors: • Follicular Lymphoma International Prognostic Index (FLIPI) score (low [0 or 1 factor], intermediate [2 factors], high [≧3 factors]); • Prior rituximab therapy (yes, no); • Time since last dose of anti-lymphoma therapy (≦1 year, >1 year); • Region (United States/Canada, European Union, Rest of World).
The following clinical endpoints were included in the analysis within each treatment group and an overall comparison was made with the biomarker-related endpoints: Progression-free survival, defined as the interval between the date of randomization and the date of progressive disease (PD) or death, whichever is first reported in the ITT population; overall survival; overall response rate (complete response [CR]+CR unconfirmed [CRu]+partial response [PR]); overall CR rate (CR+CRu); duration of response; time to next anti-lymphoma therapy; and treatment free interval.

[1] = PSMB1/A171S: G/G, >1 year since last anti-lymphoma treatment
[2] = PSMB1/A171S: G/G, Ann Arbor Stage IV
[3] = PSMB1/A171S: G/G, European Union
[4] = PSMB1/A171S: G/G, High Tumor Burden
[5] = PSMB1/A171S: G/G, ≦65 years old
[6] = PSMB1/I208N: T/T, >1 year since last anti-lymphoma treatment
[7] = PSMB1/I208N: T/T, Ann Arbor Stage IV
[8] = PSMB1/I208N: T/T, European Union
[9] = PSMB1/I208N: T/T, High Tumor Burden
[10] = PSMB1/I208N: T/T, ≦65 years old
[11] = PSMB1/P11A: C/G, European Union
[12] = PSMB1/P11A: C/G, High Tumor Burden
[13] = PSMB1/P11A: G/G, >1 year since last anti-lymphoma treatment
[14] = PSMB1/P193L: C/C, >1 year since last anti-lymphoma treatment
[15] = PSMB1/P193L: C/C, Ann Arbor Stage IV
[16] = PSMB1/P193L: C/C, European Union
[17] = PSMB1/P193L: C/C, High Tumor Burden
[18] = PSMB1/P193L: C/C, ≦65 years old
[19] = PSMB2/E49X: G/G, >1 year since last anti-lymphoma treatment
[20] = PSMB2/E49X: G/G, Ann Arbor Stage IV
[21] = PSMB2/E49X: G/G, European Union
[22] = PSMB2/E49X: G/G, High Tumor Burden
[23] = PSMB2/G187V: G/G, >1 year since last anti-lymphoma treatment
[24] = PSMB2/G187V: G/G, Ann Arbor Stage IV
[25] = PSMB2/G187V: G/G, European Union
[26] = PSMB2/G187V: G/G, High Tumor Burden
[27] = PSMB2/G187V: G/G, ≦65 years old
[28] = PSMB2/L159F: C/C, >1 year since last anti-lymphoma treatment
[29] = PSMB2/L159F: C/C, Ann Arbor Stage IV
[30] = PSMB2/L159F: C/C, European Union
[31] = PSMB2/L159F: C/C, High Tumor Burden
[32] = PSMB2/L159F: C/C, ≦65 years old
[33] = PSMB5/L206M: C/C, >1 year since last anti-lymphoma treatment
[34] = PSMB5/L206M: C/C, Ann Arbor Stage IV

rituximab was tested, and the “Median, Time to Next Anti-Lymphoma Therapy” value (P65 INTENSITY CYTOPLASMIC SIGNAL: ≧2+, ≦65 years old, IRC Review) was 484, the “Time to Next Anti-Lymphoma Therapy, Evt/N” value (“Time … Evt/N” for short) [1] was 98/165 and the “Time to Next Anti-Lymphoma Therapy, Median” value [1] was 688. For the same substance, the “Time … Evt/N” value [2] was 86/127, the “Time to Next Anti-Lymphoma Therapy, Median” value [2] was 457 and the “Time … Evt/N” value [3] was 75/119. The “Time to Next Anti-Lymphoma Therapy, Median” value [3] was 675, the “Time … Evt/N” value [4] was 108/147 and the “Time to Next Anti-Lymphoma Therapy, Median” value [4] was 396. The “Time … Evt/N” value [5] was 130/198, the “Time to Next Anti-Lymphoma Therapy, Median” value [5] was 489 and the “Time … Evt/N” value [6] was 98/165. For the same substance, the “Time to Next Anti-Lymphoma Therapy, Median” value [6] was 688, the “Time … Evt/N” value [7] was 86/127 and the “Time to Next Anti-Lymphoma Therapy, Median” value [7] was 457. For the same substance, the “Time … Evt/N” value [8] was 75/119, the “Time to Next Anti-Lymphoma Therapy, Median” value [8] was 675 and the “Time … Evt/N” value [9] was 108/147. For the same substance, the “Time to Next Anti-Lymphoma Therapy, Median” value [9] was 396, the “Time … Evt/N” value (PSMB1/I208N: T/T, No Subgroup) was 173/276 and the “Time to Next Anti-Lymphoma Therapy, Median” value (PSMB1/I208N: T/T, No Subgroup) was 546. For the same substance, the “Time … Evt/N” value [10] was 130/198, the “Time to Next Anti-Lymphoma Therapy, Median” value [10] was 489 and the “Time … Evt/N” value [11] was 34/49. The “Time to Next Anti-Lymphoma Therapy, Median” value [11] was 462, the “Time … Evt/N” value (PSMB1/P11A: C/G, Female) was 42/75 and the “Time to Next Anti-Lymphoma Therapy, Median” value (PSMB1/P11A: C/G, Female) was 546. The “Time … Evt/N” value [12] was 49/72, the “Time to Next Anti-Lymphoma Therapy, Median” value [12] was 358 and the “Time … Evt/N” value (PSMB1/P11A: C/G, No Subgroup) was 78/127. For the same substance, the “Time to Next Anti-Lymphoma Therapy, Median” value (PSMB1/P11A: C/G, No Subgroup) was 550, the “Time … Evt/N” value (PSMB1/P11A: C/G, Other) was 2/3 and the “Time to Next Anti-Lymphoma Therapy, Median” value (PSMB1/P11A: C/G, Other) was 164. The “Time … Evt/N” value (PSMB1/P11A: C/G, White) was 67/111, the “Time to Next Anti-Lymphoma Therapy, Median” value (PSMB1/P11A: C/G, White) was 581 and the “Time … Evt/N” value (PSMB1/P11A: C/G, ≦65 years old) was 63/96. For the same substance, the “Time to Next Anti-Lymphoma Therapy, Median” value (PSMB1/P11A: C/G, ≦65 years old) was 546, the “Time … Evt/N” value [13] was 17/20 and the “Time to Next Anti-Lymphoma Therapy, Median” value [13] was 429. For the same substance, the “Time … Evt/N” value (PSMB1/P11A: G/G, Male) was 17/19, the “Time to Next Anti-Lymphoma Therapy, Median” value (PSMB1/P11A: G/G, Male) was 421 and the “Time … Evt/N” value (PSMB1/P11A: G/G, No Subgroup) was 30/37. For the same substance, the “Time to Next Anti-Lymphoma Therapy, Median” value (PSMB1/P11A: G/G, No Subgroup) was 436, the “Time … Evt/N” value (PSMB1/P11A: G/G, White) was 27/32 and the “Time to Next Anti-Lymphoma Therapy, Median” value (PSMB1/P11A: G/G, White) was 421. The “Time … Evt/N” value (PSMB1/P11A: G/G, ≦65 years old) was 21/25, the “Time to Next Anti-Lymphoma Therapy, Median” value (PSMB1/P11A: G/G, ≦65 years old) was 409 and the “Time … Evt/N” value [14] was 98/165. For the same substance, the “Time to Next Anti-Lymphoma Therapy, Median” value [14] was 688, the “Time … Evt/N” value [15] was 86/127 and the “Time to Next Anti-Lymphoma Therapy, Median” value [15] was 457. The “Time … Evt/N” value [16] was 75/119, the “Time to Next Anti-Lymphoma Therapy, Median” value [16] was 675 and the “Time … Evt/N” value [17] was 108/147. For the same substance, the “Time to Next Anti-Lymphoma Therapy, Median” value [17] was 396, the “Time … Evt/N” value (PSMB1/P193L: C/C, No Subgroup) was 173/276 and the “Time to Next Anti-Lymphoma Therapy, Median” value (PSMB1/P193L: C/C, No Subgroup) was 546. For the same substance, the “Time … Evt/N” value [18] was 130/198, the “Time to Next Anti-Lymphoma Therapy, Median” value [18] was 489 and the “Time … Evt/N” value [19] was 98/165. For the same substance, the “Time to Next Anti-Lymphoma Therapy, Median” value [19] was 688, the “Time … Evt/N” value [20] was 86/127 and the “Time to Next Anti-Lymphoma Therapy, Median” value [20] was 457. For the same substance, the “Time … Evt/N” value [21] was 75/119, the “Time to Next Anti-Lymphoma Therapy, Median” value [21] was 675 and the “Time … Evt/N” value [22] was 108/147. For the same substance, the “Time to Next Anti-Lymphoma Therapy, Median” value [22] was 396, the “Time … Evt/N” value (PSMB2/E49X: G/G, No Subgroup) was 173/276 and the “Time to Next Anti-Lymphoma Therapy, Median” value (PSMB2/E49X: G/G, No Subgroup) was 546. For the same substance, the “Time … Evt/N” value (PSMB2/E49X: G/G, ≦65 years old) was 130/198, the “Time to Next Anti-Lymphoma Therapy, Median” value (PSMB2/E49X: G/G, ≦65 years old) was 489 and the “Time … Evt/N” value [23] was 98/165. The “Time to Next Anti-Lymphoma Therapy, Median” value [23] was 688, the “Time … Evt/N” value [24] was 86/127 and the “Time to Next Anti-Lymphoma Therapy, Median” value [24] was 457. The “Time … Evt/N” value [25] was 75/119, the “Time to Next Anti-Lymphoma Therapy, Median” value [25] was 675 and the “Time … Evt/N” value [26] was 108/147. For the same substance, the “Time to Next Anti-Lymphoma Therapy, Median” value [26] was 396, the “Time … Evt/N” value (PSMB2/G187V: G/G, No Subgroup) was 173/276 and the “Time to Next Anti-Lymphoma Therapy, Median” value (PSMB2/G187V: G/G, No Subgroup) was 546. For the same substance, the “Time … Evt/N” value [27] was 130/198, the “Time to Next Anti-Lymphoma Therapy, Median” value [27] was 489 and the “Time … Evt/N” value [28] was 98/165. The “Time to Next Anti-Lymphoma Therapy, Median” value [28] was 688, the “Time … Evt/N” value [29] was 86/127 and the “Time to Next Anti-Lymphoma Therapy, Median” value [29] was 457. For the same substance, the “Time … Evt/N” value [30] was 75/119, the “Time to Next Anti-Lymphoma Therapy, Median” value [30] was 675 and the “Time … Evt/N” value [31] was 108/147. The “Time to Next Anti-Lymphoma Therapy, Median” value [31] was 396, the “Time … Evt/N” value (PSMB2/L159F: C/C, No Subgroup) was 173/276 and the “Time to Next Anti-Lymphoma Therapy, Median” value (PSMB2/L159F: C/C, No Subgroup) was 546. For the same substance, the “Time … Evt/N” value [32] was 130/198, the “Time to Next Anti-Lymphoma Therapy, Median” value [32] was 489 and the “Time … Evt/N” value [33] was 98/165. For the same substance, the “Time to Next Anti-Lymphoma Therapy, Median” value [33] was 688, the “Time … Evt/N” value [34] was 86/127 and the “Time to Next Anti-Lymphoma Therapy, Median” value [34] was 457. For the same substance, the “Time … Evt/N” value (PSMB5/L206M: C/C, European Union) was 75/119.
